Experimental data reported in patent US11834413B2, “Antiplatelet drugs and uses thereof” (SHANGHAI CUREGENE PHARMACEUTICAL CO., LTD., priority 2020, dated 2023).

Legend:
platelet aggregation = experiment: Antiaggregatory action in rats: ex vivo ADP-induced platelet aggregation in PRP, turbidimetric aggregometry; parameters: species or system Male Sprague-Dawley rats; conditions: rat, oral
Procedure: Assay 2: Antiaggregatory Action in Rats
Male Sprague-Dawley rats were used for ex vivo platelet aggregation experiments. After oral administrated with (clopidogrel, exemplary compounds provided herein and vehicle (control)) to rats, blood was collected via jugular vein at 0.5 hour, 1 hour and 2 hour time points, using 3.8% (w/v) sodium citrate solution as an anticoagulant ( 1/9 volume of whole blood). Blood samples with citrate were centrifuged at a low speed of 1000 rmp for 5 min to obtain platelet-rich plasma (PRP). After separation of PRP, the remained blood was further centrifuged at a high speed of 3000 rmp for 10 min to obtain platelet-poor plasma (PPP). The number of platelets in PRP was measured by hematology analyzer (Siemens, ADVIA2120), and adjusted to 4×10^8/mL with PPP.
Platelet aggregation was determined using turbidimetric aggregometry method by an automatic platelet aggregometer (PRECIL LBY-NJ4). The aggregometer was primarily warmed up to 37° C., and PRP (290 μL) sample was added to the cuvette and set in the automatic platelet aggregometer. After a 5 min pre-incubation, calibrated the aggregometer using PPP to representing 100% aggregation and PRP to representing 0% aggregation. Finally, a volume of […] ADP solution (final concentration 10 μM) was added to PRP sample to initial platelet aggregation. Platelet aggregation was monitored for 5 min and maximum platelet aggregation (%) was reported within the duration. Antiaggregatory action of test compounds was expressed as inhibition (%) which determined by the relation: Inhibition (%)=(maximum platelet aggregation (%) of control−maximum platelet aggregation (%) of test compound)/(maximum platelet aggregation (%) of control)*100

[1] = after absorption; cited from earlier work
[2] = after a loading dose (600 mg); cited from earlier work
[3] = Pharmacokinetic in rats: concentration of the thiol active metabolite in plasma; format: in vivo, Male Sprague-Dawley rats; conditions: for peak concentration of the thiol active metabolite compared with clopidogrel: rat plasma; for release of the active metabolite compared with clopidogrel: rat
Procedure: Assay 1: Pharmacokinetic in Rats
Male Sprague-Dawley rats were used to conduct pharmacokinetic experiment.
Test compounds (clopidogrel and exemplary compounds provided herein) was administrated orally or intravenously to rat under fast condition. Blood samples were collected via jugular vein at 5 min, 15 min, 30 min, 60 min and 120 min time points with EDTA-K2 (anticoagulant), 3′-methoxyphenacyl bromide (MPBr, derivatization reagent) and phenylmethylsulfonyl fluoride (PMSF, stabilizer). Plasma samples were then harvested by centrifuging at 1500 g for 10 min under 2-8° C. and stored at −80° C. after separation. Plasma samples were loaded to a LC-MS/MS instrument after extraction to determine the concentration of the thiol active metabolite.

## COC(=O)[C@H](c1ccccc1Cl)N1CCc2sccc2C1 [clopidogrel, Clopidogrel]
Platelet aggregation; Platelet, 10 mg/kg, ADP 10 μM, read-out: maximum inhibition of platelet aggregation
  inhibition at 10 mg/kg: ~45%
Platelet aggregation; 10 mg/kg
  time after administration to maximum inhibition of platelet aggregation: about 120 minutes
[1]
  fraction hydrolysed by esterases into an inactive carboxylic acid: 85%
  fraction undergoing two-step oxidation via hepatic cytochrome P450 isoenzymes, mainly CYP2C19: 15%
[2]
  onset of action: 2 h

## COC(=O)[C@H](c1ccccc1Cl)N1CCC(SCOC(=O)OC(C)C)/C(=C/C(=O)O)C1 (stereo partly drawn) [compound 1a]
[3]; oral, dose level 10 mg/kg
  peak concentration of the thiol active metabolite compared with clopidogrel: significantly higher than that for clopidogrel
  release of the active metabolite compared with clopidogrel: faster and more efficient release of the active metabolite than clopidogrel

## COC(=O)[C@H](c1ccccc1Cl)N1CCC(SCOC(=O)OC(C)C)/C(=C\C(=O)O)C1 (stereo partly drawn) [compound 1b]
Platelet aggregation; Platelet, 2 mg/kg, ADP 10 μM, read-out: maximum inhibition of platelet aggregation
  inhibition at 2 mg/kg: ~45%
Platelet aggregation; 2 mg/kg
  time after administration to maximum inhibition of platelet aggregation: 60 min
Platelet aggregation; 2 mg/kg vs clopidogrel 10 mg/kg
  onset of action and potency compared with clopidogrel: much faster onset of action and much higher potency than clopidogrel
[3]; oral, dose level 10 mg/kg
  peak concentration of the thiol active metabolite compared with clopidogrel: significantly higher than that for clopidogrel
  release of the active metabolite compared with clopidogrel: faster and more efficient release of the active metabolite than clopidogrel

## CCOC(=O)/C=C1\CN([C@H](C(=O)OC)c2ccccc2Cl)CCC1SCOC(=O)OC(C)C (stereo partly drawn) [compound 2a]
[3]; oral, dose level 10 mg/kg
  peak concentration of the thiol active metabolite compared with clopidogrel: significantly higher than that for clopidogrel
  release of the active metabolite compared with clopidogrel: faster and more efficient release of the active metabolite than clopidogrel

## COC(=O)OCSC1CCN([C@H](C(=O)OC)c2ccccc2Cl)C/C1=C/C(=O)O (stereo partly drawn) [compound 3]
[3]; oral 2 mg/kg and intravenous 1 mg/kg vs clopidogrel oral 10 mg/kg
  release of the active metabolite compared with clopidogrel: faster and more efficient release of the active metabolite than clopidogrel
